Reference: PubChem BioAssay (NCI)
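Exposure lasted 48 hours, with cells grown in 96-well plates and compounds tested at five concentrations. The concentration for full growth arrest is given as TGI.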

Columns and labels:
Test in all cases: DTP human tumour cell line panel, 48 h
MDA-MB-435 = system: MDA-MB-435
SF-539 CNS = system: SF-539 CNS
HCT-116 colon = system: HCT-116 colon
OVCAR-5 ovarian = system: OVCAR-5 ovarian
UACC-62 melanoma = system: UACC-62 melanoma
OVCAR-3 ovarian = system: OVCAR-3 ovarian
SK-MEL-2 melanoma = system: SK-MEL-2 melanoma
COLO 205 colon = system: COLO 205 colon
EKVX NSCLC = system: EKVX NSCLC
SF-268 CNS = system: SF-268 CNS
BT-549 breast = system: BT-549 breast
NCI-H23 lung = system: NCI-H23 lung
IGROV1 ovarian = system: IGROV1 ovarian
HOP-62 NSCLC = system: HOP-62 NSCLC
A498 renal = system: A498 renal
ACHN renal = system: ACHN renal
RPMI-8226 leukemia = system: RPMI-8226 leukemia
A549 NSCLC = system: A549 NSCLC
MCF7 breast = system: MCF7 breast
HCC-2998 colon = system: HCC-2998 colon
K-562 leukemia = system: K-562 leukemia
NCI-H522 lung = system: NCI-H522 lung
CCRF-CEM leukemia = system: CCRF-CEM leukemia
T-47D breast = system: T-47D breast
SK-OV-3 ovarian = system: SK-OV-3 ovarian
CAKI-1 renal = system: CAKI-1 renal
SNB-75 CNS = system: SNB-75 CNS
LOX IMVI melanoma = system: LOX IMVI melanoma
HL-60(TB) leukemia = system: HL-60(TB) leukemia
TK-10 renal = system: TK-10 renal
HCT-15 colon = system: HCT-15 colon
SW-620 colon = system: SW-620 colon
MALME-3M melanoma = system: MALME-3M melanoma
MDA-N = system: MDA-N
KM12 colon = system: KM12 colon
SK-MEL-5 melanoma = system: SK-MEL-5 melanoma
NCI/ADR-RES ovarian = system: NCI/ADR-RES ovarian
HT29 colon = system: HT29 colon
NCI-H460 lung = system: NCI-H460 lung
SN12C renal = system: SN12C renal
MDA-MB-231 breast = system: MDA-MB-231 breast
UO-31 renal = system: UO-31 renal
DU-145 prostate = system: DU-145 prostate
OVCAR-8 ovarian = system: OVCAR-8 ovarian
786-0 renal = system: 786-0 renal
SNB-19 CNS = system: SNB-19 CNS
RXF 393 renal = system: RXF 393 renal
M14 melanoma = system: M14 melanoma
SF-295 CNS = system: SF-295 CNS
U251 CNS = system: U251 CNS
PC-3 prostate = system: PC-3 prostate
HOP-92 NSCLC = system: HOP-92 NSCLC
OVCAR-4 ovarian = system: OVCAR-4 ovarian
NCI-H226 lung = system: NCI-H226 lung
UACC-257 melanoma = system: UACC-257 melanoma
SK-MEL-28 melanoma = system: SK-MEL-28 melanoma
SR leukemia = system: SR leukemia
MOLT-4 leukemia = system: MOLT-4 leukemia
HS 578T breast = system: HS 578T breast

S=C1N=C2C(=N1)n1c3c(c4ccccc41)CCCC23 (stereo not drawn)
TGI (MDA-MB-435): > 100 µM | TGI (SF-539 CNS): > 100 µM | TGI (HCT-116 colon): > 100 µM | TGI (OVCAR-5 ovarian): > 100 µM | TGI (UACC-62 melanoma): > 100 µM | TGI (OVCAR-3 ovarian): > 100 µM | TGI (SK-MEL-2 melanoma): > 100 µM | TGI (COLO 205 colon): > 100 µM | TGI (EKVX NSCLC): > 100 µM | TGI (SF-268 CNS): > 100 µM | TGI (BT-549 breast): > 100 µM | TGI (NCI-H23 lung): > 100 µM | TGI (IGROV1 ovarian): > 100 µM | TGI (HOP-62 NSCLC): > 100 µM | TGI (A498 renal): > 100 µM | TGI (ACHN renal): > 100 µM | TGI (RPMI-8226 leukemia): 97.5 µM | TGI (A549 NSCLC): > 100 µM | TGI (MCF7 breast): 63.1 µM | TGI (HCC-2998 colon): > 100 µM | TGI (K-562 leukemia): > 100 µM | TGI (NCI-H522 lung): 63.3 µM | TGI (CCRF-CEM leukemia): > 100 µM | TGI (T-47D breast): > 100 µM | TGI (SK-OV-3 ovarian): > 100 µM | TGI (CAKI-1 renal): > 100 µM | TGI (SNB-75 CNS): > 100 µM | TGI (LOX IMVI melanoma): 35.6 µM | TGI (HL-60(TB) leukemia): > 100 µM | TGI (TK-10 renal): > 100 µM | TGI (HCT-15 colon): > 100 µM | TGI (SW-620 colon): > 100 µM | TGI (MALME-3M melanoma): > 100 µM | TGI (MDA-N): > 100 µM | TGI (KM12 colon): > 100 µM | TGI (SK-MEL-5 melanoma): > 100 µM | TGI (NCI/ADR-RES ovarian): > 100 µM | TGI (HT29 colon): > 100 µM | TGI (NCI-H460 lung): > 100 µM | TGI (SN12C renal): 72.6 µM | TGI (MDA-MB-231 breast): > 100 µM | TGI (UO-31 renal): > 100 µM | TGI (DU-145 prostate): > 100 µM | TGI (OVCAR-8 ovarian): > 100 µM | TGI (786-0 renal): 32.9 µM | TGI (SNB-19 CNS): > 100 µM | TGI (RXF 393 renal): > 100 µM | TGI (M14 melanoma): > 100 µM | TGI (SF-295 CNS): > 100 µM | TGI (U251 CNS): > 100 µM | TGI (PC-3 prostate): > 100 µM | TGI (HOP-92 NSCLC): > 100 µM | TGI (OVCAR-4 ovarian): > 100 µM | TGI (NCI-H226 lung): > 100 µM | TGI (UACC-257 melanoma): > 100 µM | TGI (SK-MEL-28 melanoma): > 100 µM | TGI (SR leukemia): > 100 µM | TGI (MOLT-4 leukemia): > 100 µM | TGI (HS 578T breast): > 100 µM

COC(=O)C(Cc1ccc2c(c1)CCCC2)Cc1cc2c(cc1C(O)OC)CCC2 (stereo not drawn)
TGI (MDA-MB-435): > 100 µM | TGI (SF-539 CNS): > 100 µM | TGI (HCT-116 colon): > 100 µM | TGI (OVCAR-5 ovarian): > 100 µM | TGI (UACC-62 melanoma): > 100 µM | TGI (OVCAR-3 ovarian): > 100 µM | TGI (SK-MEL-2 melanoma): > 100 µM | TGI (COLO 205 colon): > 100 µM | TGI (EKVX NSCLC): > 100 µM | TGI (SF-268 CNS): > 100 µM | TGI (BT-549 breast): > 100 µM | TGI (NCI-H23 lung): > 100 µM | TGI (IGROV1 ovarian): > 100 µM | TGI (HOP-62 NSCLC): > 100 µM | TGI (A498 renal): > 100 µM | TGI (ACHN renal): > 100 µM | TGI (RPMI-8226 leukemia): > 100 µM | TGI (A549 NSCLC): > 100 µM | TGI (MCF7 breast): 65.1 µM | TGI (HCC-2998 colon): > 100 µM | TGI (K-562 leukemia): > 100 µM | TGI (NCI-H522 lung): > 100 µM | TGI (CCRF-CEM leukemia): > 100 µM | TGI (T-47D breast): > 100 µM | TGI (SK-OV-3 ovarian): > 100 µM | TGI (CAKI-1 renal): > 100 µM | TGI (SNB-75 CNS): > 100 µM | TGI (LOX IMVI melanoma): > 100 µM | TGI (HL-60(TB) leukemia): 56.9 µM | TGI (TK-10 renal): > 100 µM | TGI (HCT-15 colon): > 100 µM | TGI (SW-620 colon): > 100 µM | TGI (MALME-3M melanoma): > 100 µM | TGI (MDA-N): > 100 µM | TGI (KM12 colon): > 100 µM | TGI (SK-MEL-5 melanoma): > 100 µM | TGI (NCI/ADR-RES ovarian): > 100 µM | TGI (HT29 colon): > 100 µM | TGI (NCI-H460 lung): > 100 µM | TGI (SN12C renal): > 100 µM | TGI (MDA-MB-231 breast): > 100 µM | TGI (UO-31 renal): > 100 µM | TGI (DU-145 prostate): > 100 µM | TGI (OVCAR-8 ovarian): > 100 µM | TGI (786-0 renal): > 100 µM | TGI (SNB-19 CNS): > 100 µM | TGI (RXF 393 renal): 67.3 µM | TGI (M14 melanoma): > 100 µM | TGI (SF-295 CNS): > 100 µM | TGI (U251 CNS): > 100 µM | TGI (PC-3 prostate): > 100 µM | TGI (HOP-92 NSCLC): > 100 µM | TGI (OVCAR-4 ovarian): > 100 µM | TGI (NCI-H226 lung): > 100 µM | TGI (UACC-257 melanoma): 90.4 µM | TGI (SK-MEL-28 melanoma): > 100 µM | TGI (SR leukemia): > 100 µM | TGI (MOLT-4 leukemia): > 100 µM | TGI (HS 578T breast): > 100 µM
